# Source: patent US20240252506A1 (Hoffmann-La Roche Inc., priority 2021, published 2024)
# Structures can show the parent of a compound that is named as a salt.
# Tested on: Escherichia coli ATCC 25922
# Assay: Minimal Inhibitory Concentration (MIC) determination, broth microdilution (CLSI M07-A10)
# Format: cell-based
# Conditions: lowest concentration for complete growth inhibition (no visible growth); for Escherichia coli growth inhibition MIC: strain Escherichia coli ATCC 25922, 18-24 hours at 35±2° C.; for MIC: Escherichia coli, ATCC25922, strain Escherichia coli ATCC 25922, 18-24 hours at 35±2° C., read-out: Escherichia coli growth inhibition MIC
# Description: Minimal Inhibitory Concentration (MIC) Determination:
# The MIC of antibacterial compounds against multiple species and strains was determined using the broth microdilution method according to M07-A10 Clinical and Laboratory Standards Institute (CLSI) guidelines, using the appropriate broth medium. In short, the compound plates were prepared by dispensing 100 μL of each stock solution in the first well of a 96 well microtiter plate (MTP) at a concentration 100-fold higher than the final concentration desired in broth. Eleven serial 2-fold dilutions of the highest concentration were made in DMSO for new compounds and in water (or appropriate solution) for reference compounds [2]. 1 μL of each well was transferred in a new MTP, which served as the test plate by subsequent inoculation. This bacterial suspension was prepared from strains that were first sub-cultured on agar plates and incubated for 18-24 hours as appropriate. Following incubation, the inoculum was prepared from isolated colonies and adjusted to 0.5 McFarland turbidity standard (1 to 2×10^8 Colony Forming Units (CFU)/mL) in 0.9% saline. The bacterial suspension was then diluted 1:200 in appropriate sterile medium and within 15 minutes 100 μL/well were dispensed. Negative controls (lack of bacterial cells) and growth control wells (lack of compound) were included in all plates. MTPs were incubated for 18-24 hours at 35±2° C. in ambient air. The MIC value of each compound, expressed as μg/mL, was determined as the lowest concentration required for complete growth inhibition (no visible growth). • [1] CLSI (2015) Methods for dilution antimicrobial susceptibility tests for bacteria that grow aerobically; Approved Standard, Tenth Edition. CLSI Document M7-A10 (ISBN 1-56238-987-4). Wayne, PA: Clinical and Laboratory Standards Institute, 19087, USA. • [2] CLSI (2017) Performance Standards for Antimicrobial Susceptibility Testing; Twenty-Fifth Informational Supplement. CLSI Document M100-S27, CLSI, Wayne, Pennsylvania 19087, USA.
# Table 1 provides the Minimal Inhibitory Concentrations (MIC) in micrograms per millilitre of the compounds of present invention obtained against the strain Escherichia coli ATCC 25922.
Structure (SMILES),Escherichia coli growth inhibition MIC (dihydrochloride),MIC,also measured
"NCCn1nc2cc3c(c(F)c2n1)CC(CN1CCC2(CC1)CN(c1ccc4c(n1)NC(=O)CO4)C(=O)O2)C3 (single isomer, unassigned) [Example 133, 6-[2-oxo-8-[[2-(2-aminoethyl)-8-fluoro-6,7-dihydro-5H-cyclopenta[f]benzotriazol-6-yl]methyl]-1-oxa-3,8-diazaspiro[4.5]decan-3-yl]-4H-pyrido[3,2-b][1,4]oxazin-3-one dihydrochloride]",1 mg/L,–,–
"NCCn1nc2cc3c(c(F)c2n1)CC(CN1CCC2(CC1)CN(c1cnc4c(n1)NC(=O)CO4)C(=O)O2)C3 (single isomer, unassigned) [Example 134, 6-[2-oxo-8-[[2-(2-aminoethyl)-8-fluoro-6,7-dihydro-5H-cyclopenta[f]benzotriazol-6-yl]methyl]-1-oxa-3,8-diazaspiro[4.5]decan-3-yl]-4H-pyrazino[2,3-b][1,4]oxazin-3-one dihydrochloride]",0.125 mg/L,–,–
"NCCn1nc2cc3c(c(F)c2n1)CC(CN1CCC2(CC1)CN(c1cnc4c(n1)NC(=O)CO4)C(=O)O2)C3 (single isomer, unassigned) [Example 135, 6-[2-oxo-8-[[2-(2-aminoethyl)-8-fluoro-6,7-dihydro-5H-cyclopenta[f]benzotriazol-6-yl]methyl]-1-oxa-3,8-diazaspiro[4.5]decan-3-yl]-4H-pyrazino[2,3-b][1,4]oxazin-3-one dihydrochloride]",≤0.06 mg/L,–,–
"CNCc1nc2cc3c(c(F)c2o1)CC(CN1CCC2(CC1)CN(c1ccc4c(n1)NC(=O)CO4)C(=O)O2)C3 (single isomer, unassigned) [Example 136, 6-[8-[[8-Fluoro-2-(methylaminomethyl)-6,7-dihydro-5H-cyclopenta[f][1,3]benzoxazol-6-yl]methyl]-2-oxo-1-oxa-3,8-diazaspiro[4.5]decan-3-yl]-4H-pyrido[3,2-b][1,4]oxazin-3-one]",–,1 mg/L,–
"CNCc1nc2cc3c(c(F)c2o1)CC(CN1CCC2(CC1)CN(c1ccc4c(n1)NC(=O)CO4)C(=O)O2)C3 (single isomer, unassigned) [Example 137, 6-[8-[[8-Fluoro-2-(methylaminomethyl)-6,7-dihydro-5H-cyclopenta[f][1,3]benzoxazol-6-yl]methyl]-2-oxo-1-oxa-3,8-diazaspiro[4.5]decan-3-yl]-4H-pyrido[3,2-b][1,4]oxazin-3-one]",–,–,Escherichia coli growth inhibition MIC: 0.5 mg/L
"O=C1COc2ncc(N3CC4(CCN(CC5Cc6cc7nc([C@@H]8C[C@@H](O)CN8)oc7c(F)c6C5)CC4)OC3=O)nc2N1 (single isomer, unassigned) [Example 141]",–,0.5 mg/L,–
"CN[C@@H](CO)c1nc2cc3c(c(F)c2o1)CC(CN1CCC2(CC1)CN(c1cnc4c(n1)NC(=O)CO4)C(=O)O2)C3 (single isomer, unassigned) [Example 145]",–,0.5 mg/L,–
"CN(C)CC(=O)N(C)CCn1nnc2c(F)c3c(c(F)c21)CC(CN1CCC2(CC1)CN(c1cnc4c(n1)NC(=O)CO4)C(=O)O2)C3 (single isomer, unassigned) [Example 152, N-[2-[4,8-difluoro-6-[[2-oxo-3-(3-oxo-4H-pyrazino[2,3-b][1,4]oxazin-6-yl)-1-oxa-3,8-diazaspiro[4.5]decan-8-yl]methyl]-6,7-dihydro-5H-cyclopenta[f]benzotriazol-1-yl]ethyl]-2-(dimethylamino)-N-methyl-acetamide]",–,2 mg/L,–
"CN(C)CC(=O)N(C)CCn1nnc2c(F)c3c(c(F)c21)CC(CN1CCC2(CC1)CN(c1cnc4c(n1)NC(=O)CO4)C(=O)O2)C3 (single isomer, unassigned) [Example 153, N-[2-[4,8-difluoro-6-[[2-oxo-3-(3-oxo-4H-pyrazino[2,3-b][1,4]oxazin-6-yl)-1-oxa-3,8-diazaspiro[4.5]decan-8-yl]methyl]-6,7-dihydro-5H-cyclopenta[f]benzotriazol-1-yl]ethyl]-2-(dimethylamino)-N-methyl-acetamide]",–,–,Escherichia coli growth inhibition MIC: 2 mg/L
"CC(=O)N(C)CCn1nnc2c(F)c3c(c(F)c21)CC(CN1CCC2(CC1)CN(c1cnc4c(n1)NC(=O)CO4)C(=O)O2)C3 (single isomer, unassigned) [Example 156, N-[2-[4,8-difluoro-6-[[2-oxo-3-(3-oxo-4H-pyrazino[2,3-b][1,4]oxazin-6-yl)-1-oxa-3,8-diazaspiro[4.5]decan-8-yl]methyl]-6,7-dihydro-5H-cyclopenta[f]benzotriazol-1-yl]ethyl]-N-methyl-acetamide]",–,8 mg/L,–
"CC(=O)N(C)CCn1nnc2c(F)c3c(c(F)c21)CC(CN1CCC2(CC1)CN(c1cnc4c(n1)NC(=O)CO4)C(=O)O2)C3 (single isomer, unassigned) [Example 157, N-[2-[4,8-difluoro-6-[[2-oxo-3-(3-oxo-4H-pyrazino[2,3-b][1,4]oxazin-6-yl)-1-oxa-3,8-diazaspiro[4.5]decan-8-yl]methyl]-6,7-dihydro-5H-cyclopenta[f]benzotriazol-1-yl]ethyl]-N-methyl-acetamide]",–,–,Escherichia coli growth inhibition MIC: 4 mg/L
"CN(CCn1nnc2c(F)c3c(c(F)c21)CC(CN1CCC2(CC1)CN(c1cnc4c(n1)NC(=O)CO4)C(=O)O2)C3)C(=O)CN (single isomer, unassigned) [Example 166, 2-Amino-N-methyl-N-[2-[4,8-difluoro-6-[[2-oxo-3-(3-oxo-4H-pyrazino[2,3-b][1,4]oxazin-6-yl)-1-oxa-3,8-diazaspiro[4.5]decan-8-yl]methyl]-6,7-dihydro-5H-cyclopenta[f]benzotriazol-1-yl]ethyl]acetamide]",–,1 mg/L,–
"CN(CCn1nnc2c(F)c3c(c(F)c21)CC(CN1CCC2(CC1)CN(c1cnc4c(n1)NC(=O)CO4)C(=O)O2)C3)C(=O)CN (single isomer, unassigned) [Example 167, 2-Amino-N-methyl-N-[2-[4,8-difluoro-6-[[2-oxo-3-(3-oxo-4H-pyrazino[2,3-b][1,4]oxazin-6-yl)-1-oxa-3,8-diazaspiro[4.5]decan-8-yl]methyl]-6,7-dihydro-5H-cyclopenta[f]benzotriazol-1-yl]ethyl]acetamide]",–,–,Escherichia coli growth inhibition MIC: 1 mg/L
"NCCn1nc2cc(F)c3c(c2n1)CC(CN1CCC2(CC1)CN(c1ccc4c(n1)NC(=O)CO4)C(=O)O2)C3 (single isomer, unassigned) [Example 170, 6-[2-Oxo-8-[[2-(2-aminoethyl)-5-fluoro-7,8-dihydro-6H-cyclopenta[e]benzotriazol-7-yl]methyl]-1-oxa-3,8-diazaspiro[4.5]decan-3-yl]-4H-pyrido[3,2-b][1,4]oxazin-3-one dihydrochloride]",0.25 mg/L,–,–
"NCCn1nc2cc(F)c3c(c2n1)CC(CN1CCC2(CC1)CN(c1ccc4c(n1)NC(=O)CO4)C(=O)O2)C3 (single isomer, unassigned) [Example 171, 6-[2-Oxo-8-[[2-(2-aminoethyl)-5-fluoro-7,8-dihydro-6H-cyclopenta[e]benzotriazol-7-yl]methyl]-1-oxa-3,8-diazaspiro[4.5]decan-3-yl]-4H-pyrido[3,2-b][1,4]oxazin-3-one dihydrochloride]",≤0.06 mg/L,–,–
"Cc1nc2c(F)c3c(c(F)c2[nH]1)CC(CNCCC1CN(c2cnc4c(n2)NC(=O)CO4)C(=O)O1)C3 (stereo not shown) [Example 1, 6-[5-[2-[(4,8-Difluoro-2-methyl-3,5,6,7-tetrahydrocyclopenta[f]benzimidazol-6-yl)methylamino]ethyl]-2-oxo-oxazolidin-3-yl]-4H-pyrazino[2,3-b][1,4]oxazin-3-one]",–,0.5 mg/L,–
